Consider seven compounds from patent US20220057405A1, “CELLS AND METHODS FOR EVALUATING THE ACTIVITY OF ORGANIC ANION TRANSPORTING POLYPEPTIDE 2A1 (OATP2A1)” (ABSORPTION SYSTEMS LLC, priority 2019, published 2022).

Read-outs that look alike come from different tables or passages of the source.

One may read the Km as the concentration of substrate that gives half-maximal velocity. The term IC50 denotes the concentration that gives 50% inhibition.

The subject of one data set is HEK293-VC-Neo cells. Briefly: Cellular uptake of fluorescent substrate by vector control cells. Type of data set: cell-based, human. To be noted: first 30 min of the assay (FIG. 6A, pH 7.5). The procedure:
(§1) Assay procedure—HEK293-OATP2A1 cells and the vector control HEK293-VC-Neo cells were plated at 250,000 cells per well on 24 well poly-D-Lysine coated (BioCoat™) plates (Corning) in complete DMEM medium and grown for 48 hrs at 37 C.
[…] For incubations with 6-CF, 1×HBSS pH 5.6 was used without pH adjustment. For the uptake of 5,6-carboxy-SNARF-1, the pH of 1×HBSS was adjusted to 7.4 with Bis-Tris/HCl. After the incubation, the media was aspirated, the cells were washed twice with ice-cold HBSS and lysed with 450 μL of the lysis buffer without the protease inhibitors. […] Fluorescence intensities were measured using λex 483(14) nm and λem 530(30) for 6-CF and λex 576(15) nm and λem 640(10) for 5,6-carboxy-SNARF-1 on a CLARIOstar® multimode microplate reader (BMG LABTECH). 20 μL of the samples used for fluorescence measurement were transferred into clear polystyrene flat-bottom 96-well plates (Thermo Fisher Scientific) and protein concentration was determined.
Concentrations of the fluorescent substrates of OATP2A1 in cell lysates were determined by measuring fluorescence intensities of the lysates and calculating concentrations of either 6-CF or 5,6-carboxy-SNARF-1 using linear calibration curves obtained from fluorescence intensities of the standard solutions of the fluorescent probes prepared in the same lysis buffer on the same 96-well assay plate. […]

The target in data set [1] is T1, OATP2A1 (Homo sapiens, UniProt Q92959). Briefly: Cellular uptake assay with fluorescent substrate of OATP2A1 in HEK293-OATP2A1 cells. The format is cell-based. The method, then:
Key reagents—6-Carboxyfluorescein (6-CF) was purchased from Toronto Research Chemicals (Cat. No. C178325); 5,6-carboxy-SNARF-1 (5,6-Carboxy-seminaphthorhodafluor-1) was obtained from Thermo Fisher Scientific (Cat. No. C1270).
as §1
[…] For incubations with 6-CF, 1×HBSS pH 5.6 was used without pH adjustment. For the uptake of 5,6-carboxy-SNARF-1, the pH of 1×HBSS was adjusted to 7.4 with Bis-Tris/HCl. After the incubation, the media was aspirated, the cells were washed twice with ice-cold HBSS and lysed with 450 μL of the lysis buffer without the protease inhibitors. Two 150-μL samples from each well of the 24-well plates were taken and transferred into separate wells on black opaque 96-well Opti-plates (PerkinElmer). Fluorescence intensities were measured using λex 483(14) nm and λem 530(30) for 6-CF and λex 576(15) nm and λem 640(10) for 5,6-carboxy-SNARF-1 on a CLARIOstar® multimode microplate reader (BMG LABTECH). 20 μL of the samples used for fluorescence measurement were transferred into clear polystyrene flat-bottom 96-well plates (Thermo Fisher Scientific) and protein concentration was determined.
(§2) Concentrations of the fluorescent substrates of OATP2A1 in cell lysates were determined by measuring fluorescence intensities of the lysates and calculating concentrations of either 6-CF or 5,6-carboxy-SNARF-1 using linear calibration curves obtained from fluorescence intensities of the standard solutions of the fluorescent probes prepared in the same lysis buffer on the same 96-well assay plate. In order to account for differences in cell densities between the wells, protein concentration in the lysates was measured and used for calculating normalized uptake of the fluorescent substrates as follows:
(§3) The IC50 values were calculated from non-linear 4-parameter fit of the % Inhibition values vs. concentration of the inhibitors using GraphPad Prism 5 software. The same software was used for obtaining KM and Vmax values from a non-linear fit of the rate vs. substrate concentration fit into classic Michaelis-Menten equation: […]
Where: • CS is the substrate concentration in cell lysate • CP is the protein concentration in cell lysate • NUTC is the normalized uptake of the substrate in the presence of test article or inhibitor • NUHEK293-VC-Neo is the uninhibited (0.1% DMSO) normalized uptake by vector control cells • NUHEK293-OAM2A1 is the uninhibited (0.1% DMSO) normalized uptake by HEK293-OATP2A1 cells • Vt is the rate of the substrate uptake expressed as Normalized Uptake • Vmax is the calculated maximal rate of the substrate uptake by HEK293-OATP2A1 cells • S is the concentration of the fluorescent substrate of OATP2A1 • KM is the calculated Michaelis constant.

The target of data set [2] is T1, OATP2A1. Briefly: OATP2A1 inhibition assay, cellular uptake of 6-CF with HEK293-OATP2A1 cells. Type of data set: cell-based. To be noted: 6-CF substrate, pH 5.5. The procedure: as §1
(§4) Cellular uptake of the fluorescent substrates 6-CF and 5,6-carboxy-SNARF-1 was assessed by incubating the HEK293-OATP2A1 and HEK293-VC-Neo cells with 10 μM 6-CF and 5 μM 5,6-carboxy-SNARF-1 for 15 and 20 min, correspondingly. For incubations with 6-CF, 1×HBSS pH 5.6 was used without pH adjustment. For the uptake of 5,6-carboxy-SNARF-1, the pH of 1×HBSS was adjusted to 7.4 with Bis-Tris/HCl. After the incubation, the media was aspirated, the cells were washed twice with ice-cold HBSS and lysed with 450 μL of the lysis buffer without the protease inhibitors. Two 150-μL samples from each well of the 24-well plates were taken and transferred into separate wells on black opaque 96-well Opti-plates (PerkinElmer). Fluorescence intensities were measured using λex 483(14) nm and λem 530(30) for 6-CF and λex 576(15) nm and λem 640(10) for 5,6-carboxy-SNARF-1 on a CLARIOstar® multimode microplate reader (BMG LABTECH). 20 μL of the samples used for fluorescence measurement were transferred into clear polystyrene flat-bottom 96-well plates (Thermo Fisher Scientific) and protein concentration was determined.
All compounds were acquired from Sigma-Aldrich as solid powders and 10 mM stocks were made either in DMSO or HBSS (see Table 1). Serial dilutions of the compounds were made using 3.162-fold […] dilution factor either with DMSO or HBSS at the concentrations 1,000 higher than the final concentrations in the assay. […]
as §2
(§5) Using uninhibited normalized uptake values obtained with HEK293-OATP2A1 and HEK293-VC-Neo cells in 0.1% DMSO in HBSS as the high and low controls of the assay, the % Control and % Inhibition values were calculated as follows: […]
The IC50 values were calculated from non-linear 4-parameter fit of the % Inhibition values vs. concentration of the inhibitors using GraphPad Prism 5 software. […]

Data set [3] has as its target T1, OATP2A1. Briefly: OATP2A1 inhibition assay, cellular uptake of 5,6-Carboxy-SNARF with HEK293-OATP2A1 cells. Type of data set: cell-based. The conditions noted are these: HEK293-OATP2A1 cells, 5,6-Carboxy-SNARF substrate, pH 7.4. The method, then: as §1, §4
All compounds were acquired from Sigma-Aldrich as solid powders and 10 mM stocks were made either in DMSO or HBSS (see Table 1). Serial dilutions of the compounds were made using 3.162-fold […] dilution factor either with DMSO or HBSS at the concentrations 1,000 higher than the final concentrations in the assay. These 1,000× solutions were further diluted 1:100 with HBSS in 2-mL polypropylene deep 96-well block (VWR) to make 10× working stock solutions of the inhibitors.
HEK293-OATP2A1 and HEK293-VC-Neo cells were cultured. The media was aspirated and 800 μL of HBSS was added to each well followed by the addition of 100 μL of the 10× working stock solutions of the inhibitors. The plates were incubated for 5 min at RT, and the assay was started by the addition of 100 μL of either 100 μM 6-CF or 50 μM 5,6-carboxy-SNARF-1 in HBSS.
as §2, §5, §3

In data set [4] the target is T1, OATP2A1. The conditions noted are these: published potencies of the OATP2A1 inhibitors; read-out: IC50, Literature (Kamo et al., J Pharma Sci, 2017); cited from earlier work.

Take “5,6-Carboxy-seminaphthorhodafluor-1 [5,6-Carboxy-SNARF]”: the “initial rate of the uptake” value with HEK293-VC-Neo cells was determined as 0.7 pmol/mg/min; at OATP2A1 [1] (HEK293-OATP2A1 cells, first 30 min of the assay (FIG. 6A, pH 7.5)), 99.1 pmol/mg/min. For the same compound, the “S:B in uptake assay” value on OATP2A1 [1] (HEK293-OATP2A1 cell line, time-course, pH 7.5 (FIG. 6A)) was determined as 142. Besides, the Michaelis-Menten constant (Km) on OATP2A1 [1] (OATP2A1-mediated uptake in HEK293-OATP2A1 cell line, Michaelis-Menten fit (FIG. 5)) was 29 ± 9 µM. The transporter specificity entry at OATP2A1 [1] (OATP2A1 vs. OATP2B1 transporters (FIG. 4A)) is “specific for OATP2A1 vs. OATP2B1”.
Turning to `O=C(O)c1ccc2c(c1)C1(OC2=O)c2ccc(O)cc2Oc2cc(O)ccc21` [Compound 6-CF, 6-Carboxyfluorescein], the “rate of uptake by HEK293-OATP2A1 cell line compared to the control cells” value on OATP2A1 [1] (FIG. 2, vs vector control cells HEK-VC-Neo) was at least 230 fold. Moreover, the “uptake by HEK293-OATP2A1 cell line vs rate of uptake by the control cells” value is 233 times at OATP2A1 [1] (pH 6.5 (FIG. 6B)) and “more than 1400 times” on OATP2A1 [1] (sentence following the initial rates of FIG. 6A).
For `CCCCc1nc(Cl)c(CO)n1Cc1ccc(-c2ccccc2-c2nn[nH]n2)cc1` [Losartan], the 50% inhibitory concentration (IC50) at OATP2A1 [2] is 1280 nM; on OATP2A1 [3], 1210 nM; at OATP2A1 [4], 1760 nM.
Regarding `CCCc1nc(C(C)(C)O)c(C(=O)O)n1Cc1ccc(-c2ccccc2-c2nnn[nH]2)cc1` [Olmesartan], the 50% inhibitory concentration (IC50) against OATP2A1 [2] was 492 nM; at OATP2A1 [3], 554 nM; at OATP2A1 [4], 970 nM.
On to `O=C(Nc1cccc2c(=O)cc(-c3nnn[nH]3)oc12)c1ccc(OCCCCc2ccccc2)cc1` [Pranlukast], for which the IC50 was 142 nM against OATP2A1 [2], 148 nM against OATP2A1 [3] and 550 nM at OATP2A1 [4].
Take `Cc1ccc(C(=O)Nc2ccc(S(=O)(=O)O)c3cc(S(=O)(=O)O)cc(S(=O)(=O)O)c23)cc1NC(=O)c1cccc(NC(=O)Nc2cccc(C(=O)Nc3cc(C(=O)Nc4ccc(S(=O)(=O)O)c5cc(S(=O)(=O)O)cc(S(=O)(=O)O)c45)ccc3C)c2)c1` [Suramin]: the values for the IC50 at OATP2A1 [2], on OATP2A1 [3] and at OATP2A1 [4] were 222 nM, 186 nM and 170 nM, respectively.
Regarding `COc1cc(C(=O)NS(=O)(=O)c2ccccc2C)ccc1Cc1cn(C)c2ccc(NC(=O)OC3CCCC3)cc12` [Zafirlukast], the concentration for half-maximal inhibition (IC50) against OATP2A1 [3] is 1110 nM; on OATP2A1 [4], 1600 nM.
